In article PMC3514116 (BMC Plant Biology, 2012):
Marks after values point to notes of the source that are not given here. Ends that are not written are not given here.

Legend:
[1] = system: tobacco leaves; assay: Phytotoxicity, tobacco leaf inoculation assay; type: in vivo, Nicotiana benthamiana; details: for Phytotoxicity at 150 μM (inoculation): lesion diameter: 100 μl of 150 μM peptide inoculated into tobacco leaf mesophyll, three days, mean and standard error, at least three inoculations
Description: Tobacco (Nicotiana benthamiana) plants were grown from seed in a heated glasshouse and used between 20 and 30 days old. One hundredμl chemically synthesized peptides at 50, 100, 150 or 250 μM were inoculated into the mesophylls of fully expanded tobacco leaves (previously wounded with a needle), using a syringe without needle, and plants were kept at standard glasshouse conditions for three days. Up to six independent inoculations were carried out in a single leaf, and at least three independent inoculations were performed per peptide and concentration, randomly distributed in different leaves and plants. Toxicity was measured as the lesion diameter.

[2] = system: erythrocyte suspensions of fresh human blood; assay: Hemolytic activity (hemoglobin release); type: cell-based; details: human erythrocytes 5% v/v, TRIS/NaCl pH 7.2, 150 μM peptide, 1 h 37°C, A540
Description: Hemoglobin release from erythrocyte suspensions of fresh human blood (5% v/v) was used to evaluate hemolytic activity of synthetic peptides. Briefly, aseptically collected blood (BD vacutainer K2E System with EDTA, Belliver Industrial State, Plymouth, UK) was centrifuged at 6,000 g for 5 min, washed with 10 mM TRIS, 150 mM NaCl, pH 7.2 and suspended in the same buffer. Fifty μl of peptide solutions at 300 μM were mixed with 50 μl aliquots of erythrocyte suspensions and incubated for 1h at 37 °C with shaking. After centrifugation, the supernatants were transferred to microplate wells with 80 μl H2O and the 540 nm absorbance was monitored with a Bioscreen plate reader. Hemolysis percentages were calculated relative to mellitin and TRIS buffer.

[3] = system: rice Senia seeds; assay: Phytotoxicity, rice germination assay; type: in vivo, Oryza sativa L.; details: for Phytotoxicity (germination): minimal peptide concentration causing significant alteration of shoot length: 12 Senia seeds per treatment germinated 7 days in 0, 8, 16, 32, 64 μM peptide, 28°C, one-way ANOVA; for Effect on rice seedling development at high concentrations: germination test, Senia seeds, 7 days, 125 and 250 μM also tested
Description: For each treatment, a total of 12 surface-sterilized Senia seeds were germinated in 500 μl water or peptide solution at the appropriate concentration (0, 8, 16, 32 and 64 μM) in a culture chamber (28 ± 1°C with a photoperiod of 16 h light / 8 h dark under fluorescent Sylvania Cool White lamps) for seven days. Seedling morphology was recorded and shoot length was measured.

[4] = system: Erwinia amylovora PMV6076 (Ea); assay: In vitro growth inhibition (MIC), Erwinia amylovora; details: 10^8 bacterial CFU/ml suspension in TSB, microtiter plate, 25°C 48 h, OD 600 nm; three replicates, two experimental replicates; MIC = lowest concentration with no growth
Description: (§1) Peptides were solubilized in sterile Milli-Q H2O to a concentration of 1 mM and filter sterilized through a 0.22 μm pore filter. […] Bacterial strains were stored at −80°C in Luria Bertani (LB) broth with glycerol (20%). After 24 h (Ea, Pss and Dc) or 48 h (Xav) growth in LB agar at 25°C, bacterial colonies were scraped off the surface, suspended in sterile H2O and adjusted to 10^8 CFU/ml. The fungal strain was stored at 4°C in the particulate solid carrier perlite, on fresh potato dextrose agar (PDA). Fv cultures were prepared in potato dextrose broth (PDB) and incubated for one week at 25°C in the dark in a rotary shaker at 125 rpm. They were filtered through several layers of sterile cheesecloth to eliminate macroconidia and mycelial growth. The effluent was centrifuged at 8,000 rpm for 20 min at 4°C and the pellet was suspended in sterile water. Microconidia concentration was determined in a counting chamber.
(§2) Serial dilutions of synthetic peptides were prepared at 400, 200, 100, 50, 25, 12.5 and 6 μM. […] Microplates were incubated at 25°C for 48 h (bacterial strains) or 22°C for 6 days (Fv), and optical densities at 600 nm were recorded hourly (every two hours for Fv) after 20 s shaking. […]

[5] = system: Xanthomonas axonopodis pv. vesicatoria 2133-2 (Xav); assay: In vitro growth inhibition (MIC), Xanthomonas axonopodis pv. vesicatoria; details: 10^8 bacterial CFU/ml suspension in TSB, microtiter plate, 25°C 48 h, OD 600 nm; three replicates, two experimental replicates
Description: as §1, §2

[6] = system: Dickeya chrysanthemi 1552-10-1 (Dc); assay: In vitro growth inhibition (MIC), Dickeya chrysanthemi; details: 10^8 bacterial CFU/ml suspension in TSB, microtiter plate, 25°C 48 h, OD 600 nm; three replicates, two experimental replicates
Description: as §1, §2

[7] = system: Pseudomonas syringae pv. syringae EPS94 (Pss); assay: In vitro growth inhibition (MIC), Pseudomonas syringae pv. syringae; details: 10^8 bacterial CFU/ml suspension in TSB, microtiter plate, 25°C 48 h, OD 600 nm; three replicates, two experimental replicates
Description: as §1, §2

[8] = system: mice; details: cited from earlier work
[9] = system: erythrocyte suspensions of fresh human blood; details: human erythrocytes 5% v/v, TRIS/NaCl pH 7.2, 1 h 37°C, A540, relative to mellitin; confidence interval for α = 0.05; cited from earlier work

Compound | Phytotoxicity at 150 μM (inoculation): lesion diameter [1] | Hemolytic activity at 150 μM, ratio between each peptide and the reference peptide BP100 [2] | Phytotoxicity (germination): minimal peptide concentration causing significant alteration of shoot length [3] | Antimicrobial activity Ea, minimal inhibitory concentration (MIC) [4] | Antimicrobial activity Xav, minimal inhibitory concentration (MIC) [5] | Antimicrobial activity Dc, minimal inhibitory concentration (MIC) [6] | Antimicrobial activity Pss, minimal inhibitory concentration (MIC) [7] | Biocompatibility in acute oral toxicity tests [8] | Hemolytic activity at 150 μM [9] | Effect on rice seedling development at high concentrations [3] | Lesions in tobacco leaves compared with BP100 and BP100 derivatives ([1]; inoculation of 50 to 250 μM, same doses, positive control)
KKLFKKILKYLAGPAKKLFKKILKYLAGPAKKLFKKILKYLKDEL-NH2 (C-terminus assumed) [BP100.3] | 1.38 ± 0.04^b cm | 4 | 16 µM |  |  |  |  |  |  |  | 
CC[C@H](C)[C@H](NC(=O)[C@H](CCCCN)NC(=O)[C@H](CCCCN)NC(=O)[C@H](Cc1ccccc1)NC(=O)[C@H](CC(C)C)NC(=O)[C@H](CCCCN)NC(=O)[C@@H](N)CCCCN)C(=O)N[C@@H](CC(C)C)C(=O)N[C@@H](CCCCN)C(=O)N[C@@H](Cc1ccc(O)cc1)C(=O)N[C@@H](CC(C)C)C(=O)O [unmodified BP100] | 0.80 ± 0.02^a cm | 1 | 64 µM | 5.0 to 10 µM | 10 to 20 µM | 10 to 20 µM | 5.0 to 10 µM |  |  |  | 
KKLFKKILKYLAGPAKKLFKKILKYLKDEL-NH2 (C-terminus assumed) [BP100.2] | 1.15 cm | 3 | 32 µM |  |  |  |  |  |  |  | 
CC[C@H](C)[C@H](NC(=O)[C@H](CCCCN)NC(=O)[C@H](CCCCN)NC(=O)[C@H](Cc1ccccc1)NC(=O)[C@H](CC(C)C)NC(=O)[C@H](CCCCN)NC(=O)[C@@H](N)CCCCN)C(=O)N[C@@H](CC(C)C)C(=O)N[C@@H](CCCCN)C(=O)N[C@@H](Cc1ccc(O)cc1)C(=O)N[C@@H](CC(C)C)C(N)=O [BP100] | 0.90 ± 0.05^a cm |  | 64 µM |  | 5.0 to 10 µM | 5 to 10 µM |  | highly biocompatible | 22.0 ± 2.8% | barely effected root growth but almost completely inhibited shoot development | 
mellitin: highly cytotoxic, potent hemolytic natural AMP, 26 amino acids, positive control [reference compound] |  |  |  |  |  |  |  |  |  | predominantly inhibited root growth while allowing moderate shoot development | more severe lesions
KKLFKKILKYLTTGLPALISAGPASILAPLGTTLYKLIKKFLKKKDEL-NH2 (C-terminus assumed) [BP100.2mi] | 1.46 ± 0.12^b cm | 5 | 16 µM |  |  |  |  |  |  |  | 
CC[C@H](C)[C@H](NC(=O)[C@H](CCCCN)NC(=O)[C@H](CCCCN)NC(=O)[C@H](Cc1ccccc1)NC(=O)[C@H](CC(C)C)NC(=O)[C@H](CCCCN)NC(=O)[C@@H](N)CCCCN)C(=O)N[C@@H](CC(C)C)C(=O)N[C@@H](CCCCN)C(=O)N[C@@H](Cc1ccc(O)cc1)C(=O)N[C@@H](CC(C)C)C(=O)N[C@@H](CCCCN)C(=O)N[C@@H](CC(=O)O)C(=O)N[C@@H](CCC(=O)O)C(=O)N[C@@H](CC(C)C)C(N)=O [BP100.1] | 1.17 cm | <1 | 64 µM |  |  |  |  |  |  |  | 
CC[C@H](C)[C@H](NC(=O)[C@H](CC(C)C)NC(=O)[C@H](CCCCN)NC(=O)[C@H](Cc1ccc(O)cc1)NC(=O)[C@H](CC(C)C)NC(=O)[C@H](C)NC(=O)[C@@H]1CCCN1C(=O)CNC(=O)[C@H](C)NC(=O)[C@H](CC(C)C)NC(=O)[C@H](Cc1ccc(O)cc1)NC(=O)[C@H](CCCCN)NC(=O)[C@H](CC(C)C)NC(=O)[C@@H](NC(=O)[C@H](CCCCN)NC(=O)[C@H](CCCCN)NC(=O)[C@H](Cc1ccccc1)NC(=O)[C@H](CC(C)C)NC(=O)[C@H](CCCCN)NC(=O)[C@@H](N)CCCCN)[C@@H](C)CC)C(=O)N[C@@H](CCCCN)C(=O)N[C@@H](CCCCN)C(=O)N[C@@H](Cc1ccccc1)C(=O)N[C@@H](CC(C)C)C(=O)N[C@@H](CCCCN)C(=O)N[C@@H](CCCCN)C(=O)N[C@@H](CCCCN)C(=O)N[C@@H](CC(=O)O)C(=O)N[C@@H](CCC(=O)O)C(=O)N[C@@H](CC(C)C)C(N)=O [BP100.2i] | 1.32 ± 0.06^b cm | 4 | 16 µM |  |  |  |  |  |  |  | 
